The values that follow come from patent US12606533B2, “3-phenylpropylamine derivative” (DAIICHI SANKYO COMPANY, LIMITED, priority 2023, dated 2026).

Read-outs that look alike come from different tables or passages of the source.

In one experiment the test system is NCI-H295R cells. Description: Proliferation inhibitory action on NCI-H295R (CellTiter-Glo, 7 days). It is filed as cell-based, human. Summed up:
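Compounds serially diluted in DMSO; cells seeded at 2×10^3 cells/well and cultured 7 days at 37° C, 5% CO2. CellTiter-Glo 2.0 luminescence read at day 0 and day 7; proliferation rate derived from compound-addition-day signal, untreated day-7 signal and treated day-7 signal.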
On the technique in general: In ATP-based viability assays light output follows the ATP content of the culture.

In the next experiment the target is T1, SF-1 (Homo sapiens, UniProt Q13285).
T1 construct: NCI-H295R SF-1-HiBiT cells with HiBiT tag knocked in at the endogenous SF1 locus; host or cells: NCI-H295R SF-1-HiBiT (knock-in at endogenous locus)
Description: SF1 degradation induction in NCI-H295R SF-1-HiBiT cells (HiBiT DC50). It is filed as cell-based. The settings on record: 24 hr, concentration that induces 50% degradation of SF-1. Summed up:
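NCI-H295R cells carrying HiBiT-tagged SF-1, plated and grown 24 hr, then exposed to serially diluted compounds for 24 hr at 37° C. Remaining SF-1 read by lytic HiBiT luminescence; degradation rate from treated vs compound-free signal, DC50 as concentration giving 50% degradation.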
Background: The HiBiT peptide binds its large partner to form an active luciferase.

In general, GI50 refers to the concentration at which growth is held to half of that of the control. The DC50 is the concentration giving 50% degradation. A low value points to a more potent degrader. In the experiment on NCI-H295R cells (Homo sapiens, NCI-H295R, 168 h), `COc1ccc([C@]2(CCN(Cc3ccc(-c4cccc(CC(=O)NCCNc5ccc6c(c5)n(C)c(=O)n6C5CCC(=O)NC5=O)c4)cc3)CC(C)(C)C(F)(F)F)CCOC(C)(C)C2)cc1` (stereo partly drawn) [Example AA4, N-(2-{[1-(2,6-Dioxopiperidin-3-yl)-3-methyl-2-oxo-2,3-dihydro-1H-benzimidazol-5-yl]amino}ethyl)-2-(4′-{[{2-[(4R)-4-(4-methoxyphenyl)-2,2-dimethyltetrahydro-2H-pyran-4-yl]ethyl)(3,3,3-trifluoro-2,2-dimethylpropyl)amino]methyl}[biphenyl]-3-yl)acetamide] registered a 50% growth inhibitory concentration (GI50) of 488 nM. For the same compound, at SF-1, half-maximal degradation (DC50) was put at 12 nM.
The matching figures for `COc1ccc([C@]2(CCN(Cc3ccc(C4=C(F)CC(C(=O)N5CCN(Cc6ccc7c8c6CCCn8c(=O)n7C6CCC(=O)NC6=O)CC5)CC4)cc3)CC(C)(C)C(F)(F)F)CCOC(C)(C)C2)cc1` (stereo partly drawn) [BB7, 3-[7-({4-[(6-Fluoro-4′-{[{2-[(4R)-4-(4-methoxyphenyl)-2,2-dimethyltetrahydro-2H-pyran-4-yl]ethyl)(3,3,3-trifluoro-2,2-dimethylpropyl)amino]methyl}-2,3,4,5-tetrahydro[biphenyl]-4-yl)carbonyl]piperazin-1-yl}methyl)-2-oxo-5,6-dihydro-4H-imidazo[4,5,1-ij]quinolin-1(2H)-yl]piperidine-2,6-dione]: 62 nM and 9 nM.
In the experiment with NCI-H295R cells (Homo sapiens, NCI-H295R, 168 h), `COc1ccc([C@]2(CCN(Cc3ccc(OC4CC5(CCN(CC(=O)N6Cc7ccc8c(c7C6)n(C)c(=O)n8C6CCC(=O)NC6=O)CC5)C4)cc3)CC(C)(C)C(F)(F)F)CCOC(C)(C)C2)cc1` (stereo partly drawn) [Example AL4, 3-[7-{[2-(4-{[{2-[(4R)-4-(4-Methoxyphenyl)-2,2-dimethyltetrahydro-2H-pyran-4-yl]ethyl}(3,3,3-trifluoro-2,2-dimethylpropyl)amino]methyl}phenoxy)-7-azaspiro[3.5]nonan-7-yl]acetyl}-1-methyl-2-oxo-1,6,7,8-tetrahydroimidazo[4,5-e]isoindole-3(2H)-yl]piperidine-2,6-dione] yielded a concentration for 50% growth inhibition (GI50) of 83 nM. At SF-1, the DC50 was 4.5 nM.
With `COc1ccc([C@]2(CCN(Cc3ccc(C4=CC[C@H](C(=O)N5CCC(Nc6ccc7c8c6CCCn8c(=O)n7C6CCC(=O)NC6=O)CC5)CC4)c(F)c3)CC(C)(C)C(F)(F)F)CCOC(C)(C)C2)cc1` (single isomer, unassigned) [CH1, (3S) or (3R)-{7-[(1-{[(4R)-2′-Fluoro-4′-{[{2-[(4R)-4-(4-methoxyphenyl)-2,2-dimethyltetrahydro-2H-pyran-4-yl]ethyl}(3,3,3-trifluoro-2,2-dimethylpropyl)amino]methyl}-2,3,4,5-tetrahydro[biphenyl]-4-yl]carbonyl}piperidin-4-yl)amino]-2-oxo-5,6-dihydro-4H-imidazo[4,5,1-ij]quinolin-1(2H)-yl}piperidine-2,6-dione], the GI50 in the experiment with NCI-H295R cells was 25 nM. In addition, at SF-1, the 50% degradation concentration (DC50) came to 2.8 nM.
Turning to `COc1ccc([C@]2(CCN(Cc3cc(F)c(C4=CCC(C(=O)N5CCN(Cc6ccc7c(c6)n(C)c(=O)n7C6CCC(=O)NC6=O)CC5)CC4)c(F)c3)CC(C)(C)C(F)(F)F)CCOC(C)(C)C2)cc1` (stereo partly drawn) [AU4, 3-[5-({4-[(2′,6′-Difluoro-4′-{[{2-[(4R)-4-(4-methoxyphenyl)-2,2-dimethyltetrahydro-2H-pyran-4-yl]ethyl)(3,3,3-trifluoro-2,2-dimethylpropyl)amino]methyl}-2,3,4,5-tetrahydro[biphenyl]-4-yl)carbonyl]piperazin-1-yl}methyl)-3-methyl-2-oxo-2,3-dihydro-1H-benzimidazol-1-yl]piperidine-2,6-dione], in the experiment with NCI-H295R cells (Homo sapiens, NCI-H295R, 168 h), the GI50 was determined as 60 nM. Half-maximal degradation at SF-1 (DC50) was put at 9.3 nM.
As for `COc1ccc([C@]2(CCN(Cc3ccc(C4=CC[C@H](C(=O)N5CCN(Cc6cc(F)c7c(c6)n(C)c(=O)n7C6CCC(=O)NC6=O)CC5)CC4)cc3)CC(C)(C)C(F)(F)F)CCOC(C)(C)C2)cc1` (stereo partly drawn) [BP6, 3-{7-Fluoro-5-[(4-{[(4R)-4′-{[{2-[(4R)-4-(4-methoxyphenyl)-2,2-dimethyltetrahydro-2H-pyran-4-yl]ethyl}(3,3,3-trifluoro-2,2-dimethylpropyl)amino]methyl}-2,3,4,5-tetrahydro[biphenyl]-4-yl]carbonyl}piperazin-1-yl)methyl]-3-methyl-2-oxo-2,3-dihydro-1H-benzimidazol-1-yl}piperidine-2,6-dione], the GI50 in the experiment with NCI-H295R cells (Homo sapiens, NCI-H295R, 168 h) worked out at 71 nM. The compound further registered a 50% degradation concentration (DC50) at SF-1 of 12 nM.
Regarding `COc1ccc([C@]2(CCN(Cc3ccc(C4=CC[C@H](C(=O)N5CCC(Nc6ccc7c(c6)n(C)c(=O)n7C6CCC(=O)NC6=O)CC5)CC4)c(F)c3)CC(C)(C)C(F)(F)F)CCOC(C)(C)C2)cc1` (stereo partly drawn) [BR3, 3-{5-[(1-{[(4R)-2′-Fluoro-4′-{[{2-[(4R)-4-(4-methoxyphenyl)-2,2-dimethyltetrahydro-2H-pyran-4-yl]ethyl)(3,3,3-trifluoro-2,2-dimethylpropyl)amino]methyl}-2,3,4,5-tetrahydro[biphenyl]-4-yl]carbonyl}piperidin-4-yl)amino]-3-methyl-2-oxo-2,3-dihydro-1H-benzimidazol-1-yl}piperidine-2,6-dione], halving of growth with NCI-H295R cells (Homo sapiens, NCI-H295R, 168 h) (GI50) required 23 nM. The 50% degradation concentration (DC50) on SF-1 turned out to be 2.2 nM.
`COc1ccc([C@]2(CCN(Cc3ccc(C4=CC[C@@H](C(=O)N5CCC(Nc6ccc7c8c6OCCn8c(=O)n7C6CCC(=O)NC6=O)CC5)CC4)c(F)c3)CC(C)(C)C(F)(F)F)CCOC(C)(C)C2)cc1` (stereo partly drawn) [BN2, 3-{7-[(1-{[(4S)-2′-Fluoro-4′-{[{2-[(4R)-4-(4-methoxyphenyl)-2,2-dimethyltetrahydro-2H-pyran-4-yl]ethyl}(3,3,3-trifluoro-2,2-dimethylpropyl)amino]methyl}-2,3,4,5-tetrahydro[biphenyl]-4-yl]carbonyl}piperidin-4-yl)amino]-2-oxo-4,5-dihydroimidazo[1,5,4-de][1,4]benzoxazin-1(2H)-yl}piperidine-2,6-dione] yielded a concentration for 50% growth inhibition (GI50) with NCI-H295R cells (Homo sapiens, NCI-H295R, 168 h) of 31 nM. The compound also came in with a DC50 on SF-1 of 2.3 nM.
The matching figures for `COc1ccc([C@]2(CCN(Cc3ccc(C4=CC[C@H](C(=O)N5CCC(Nc6ccc7c(c6)CN(C6CCC(=O)NC6=O)C7=O)CC5)CC4)cc3)CC(C)(C)C(F)(F)F)CCOC(C)(C)C2)cc1` (stereo partly drawn) [BO4, 3-{5-[(1-{[(4R)-4′-{[{2-[(4R)-4-(4-Methoxyphenyl)-2,2-dimethyltetrahydro-2H-pyran-4-yl]ethyl)(3,3,3-trifluoro-2,2-dimethylpropyl)amino]methyl}-2,3,4,5-tetrahydro[biphenyl]-4-yl]carbonyl}piperidin-4-yl)amino]-1-oxo-1,3-dihydro-2H-isoindol-2-yl}piperidine-2,6-dione]: 129 nM and 15 nM.
In the experiment on NCI-H295R cells (Homo sapiens, NCI-H295R, 168 h), `COc1ccc([C@]2(CCN(Cc3ccc(C4=CC[C@H](CN5CCN(C(=O)c6ccc7c8c6CCCn8c(=O)n7[C@@H]6CCC(=O)NC6=O)CC5)CC4)cc3)CC(C)(C)C(F)(F)F)CCOC(C)(C)C2)cc1` [BG5, (3R)-3-{7-[(4-{[(4R)-4′-{[{2-[(4R)-4-(4-Methoxyphenyl)-2,2-dimethyltetrahydro-2H-pyran-4-yl]ethyl}(3,3,3-trifluoro-2,2-dimethylpropyl)amino]methyl}-2,3,4,5-tetrahydro[biphenyl]-4-yl]methyl}piperazin-1-yl)carbonyl]-2-oxo-5,6-dihydro-4H-imidazo[4,5,1-ij]quinolin-1(2H)-yl}piperidine-2,6-dione] had a GI50 of 84 nM. This compound registered a 50% degradation concentration (DC50) at SF-1 of 9.2 nM.
`COc1ccc([C@]2(CCN(Cc3ccc(C4=CC[C@H](CN5CCN(C(=O)c6ccc7c8c6OCCn8c(=O)n7C6CCC(=O)NC6=O)CC5)CC4)cc3)CC(C)(C)C(F)(F)F)CCOC(C)(C)C2)cc1` (stereo partly drawn) [BU6, 3-{7-[(4-{[(4R)-4′-{[{2-[(4R)-4-(4-Methoxyphenyl)-2,2-dimethyltetrahydro-2H-pyran-4-yl]ethyl}(3,3,3-trifluoro-2,2-dimethylpropyl)amino]methyl}-2,3,4,5-tetrahydro[biphenyl]-4-yl]methyl}piperazin-1-yl)carbonyl]-2-oxo-4,5-dihydroimidazo[1,5,4-de][1,4]benzoxazin-1(2H)-yl}piperidine-2,6-dione] registered a 50% growth inhibitory concentration (GI50) in the experiment with NCI-H295R cells (Homo sapiens, NCI-H295R, 168 h) of 64 nM. At SF-1, this compound returned a half-maximal degradation concentration (DC50) of 18 nM.
